Measured values: ChEMBL document CHEMBL1144137, “Limonoids from Swietenia macrophylla and S. aubrevilleana” (1999)

Test system: Spodoptera frugiperda
Assay: Antifeedant activity against final instar larvae of Spodoptera frugiperda assessed as antifeedant index at 1000 ppm
Assay type: functional

Question: C/C=C(\C)C(=O)O[C@@H]1[C@H]2C(=O)[C@](C)([C@H]3CC[C@]4(C)[C@@H](CC(=O)O[C@H]4c4ccco4)[C@]34O[C@H]24)[C@@H]([C@@H](OC(C)=O)C(=O)OC)C1(C)C [swietemahonin F] was tested. Which Activity did it give?
Answer: 70.2%
